According to patent US20110230481A2, “DERIVATIVES OF TETRABROMOBENZIMIDAZOLE, A PROCESS FOR THE PREPARATION THEREOF, A PHARMACEUTICAL COMPOSITION COMPRISING THE SAME, A METHOD OF USING THE SAME, A METHOD FOR MODULATING OR REGULATING SERINE/THREONINE KINASES, AND SERINE/THREONINE KINASES MODULATING AGENT” (SELVITA S.A., priority 2009, published 2011):

Legend:
Assay in all cases: KINOMEscan Max
Format in all cases: binding
FLT3 = target: T1, FLT3 (Homo sapiens, UniProt P36888)
T1 construct: purchased Ambit Kinomescan (contract panel, KINOMEscan Max)
How it was run: (§1)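 DNA-tagged kinase + immobilized active-site directed ligand + test compound combined; ligand-bound kinase quantified by qPCR of tag. Competition binding format.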

SNARK = target: T2, SNARK (Homo sapiens, UniProt Q9H093); details: 1 μM
T2 construct: DNA tag (qPCR read-out)
How it was run: as §1

ALK = target: T3, ALK (Homo sapiens, UniProt Q9UM73)
T3 construct: DNA tag (qPCR label); purchased Ambit Kinomescan (contract screening)
How it was run: as §1

NLK = NLK (Homo sapiens, UniProt Q9UBE8)
How it was run: as §1

MRCKB = MRCKB (Homo sapiens, UniProt Q9Y5S2)
How it was run: as §1

GRK7 = target: T4, GRK7 (Homo sapiens, UniProt Q8WTQ7)
T4 construct: purchased Ambit Kinomescan (contract panel, KINOMEscan Max)
How it was run: as §1

PIK3CA(H1047Y) = target: T5, PIK3CA(H1047Y) (Homo sapiens, UniProt P42336, H1047Y)
T5 construct: DNA tag (qPCR read-out)
How it was run: as §1

BIKE = target: T6, BIKE (Homo sapiens, UniProt Q9NSY1)
T6 construct: purchased Ambit (KINOMEscan Max service)
T6 sequence (Q9NSY1 whole entry): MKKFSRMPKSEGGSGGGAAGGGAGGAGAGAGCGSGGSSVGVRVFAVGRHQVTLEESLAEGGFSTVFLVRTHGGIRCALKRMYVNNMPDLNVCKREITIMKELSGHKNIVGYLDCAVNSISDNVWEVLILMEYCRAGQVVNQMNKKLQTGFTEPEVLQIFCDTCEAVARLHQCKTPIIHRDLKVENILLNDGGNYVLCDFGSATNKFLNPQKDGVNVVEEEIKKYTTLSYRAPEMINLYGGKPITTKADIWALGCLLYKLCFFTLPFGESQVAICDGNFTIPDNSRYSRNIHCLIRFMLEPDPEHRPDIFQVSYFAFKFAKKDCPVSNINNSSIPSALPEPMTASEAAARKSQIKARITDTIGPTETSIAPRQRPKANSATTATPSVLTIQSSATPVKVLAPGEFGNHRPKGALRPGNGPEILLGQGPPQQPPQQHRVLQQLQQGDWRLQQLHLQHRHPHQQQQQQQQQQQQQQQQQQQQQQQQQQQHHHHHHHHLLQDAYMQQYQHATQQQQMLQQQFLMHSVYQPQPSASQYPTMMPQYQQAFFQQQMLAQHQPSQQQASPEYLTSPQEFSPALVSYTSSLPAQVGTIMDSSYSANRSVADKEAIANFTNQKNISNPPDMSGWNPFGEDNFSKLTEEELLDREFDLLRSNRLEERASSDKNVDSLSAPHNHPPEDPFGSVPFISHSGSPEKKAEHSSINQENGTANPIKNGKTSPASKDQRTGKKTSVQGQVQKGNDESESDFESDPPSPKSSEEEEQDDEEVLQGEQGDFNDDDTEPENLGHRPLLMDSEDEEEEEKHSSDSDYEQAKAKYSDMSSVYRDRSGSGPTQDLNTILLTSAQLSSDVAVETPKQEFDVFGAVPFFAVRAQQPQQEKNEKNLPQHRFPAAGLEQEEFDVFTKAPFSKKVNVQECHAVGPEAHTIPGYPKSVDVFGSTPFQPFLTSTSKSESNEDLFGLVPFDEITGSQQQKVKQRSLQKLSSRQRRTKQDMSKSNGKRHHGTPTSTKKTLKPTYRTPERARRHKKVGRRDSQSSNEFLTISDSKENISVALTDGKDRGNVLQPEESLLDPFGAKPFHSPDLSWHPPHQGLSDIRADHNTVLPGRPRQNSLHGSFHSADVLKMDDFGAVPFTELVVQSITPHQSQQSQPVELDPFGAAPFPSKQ
How it was run: as §1

MAP3K3 = target: T7, MAP3K3 (Homo sapiens, UniProt Q99759)
T7 construct: purchased Ambit Kinomescan (contract panel)
How it was run: as §1

KIT(L576P) = target: T8, KIT(L576P) (Homo sapiens, UniProt P10721, L576P)
T8 construct: purchased Ambit (KINOMEscan Max service)
How it was run: as §1

CDKL3 = target: T9, CDKL3 (Homo sapiens, UniProt Q8IVW4)
T9 construct: purchased Ambit Kinomescan (contract screening)
T9 sequence (Q8IVW4 whole entry): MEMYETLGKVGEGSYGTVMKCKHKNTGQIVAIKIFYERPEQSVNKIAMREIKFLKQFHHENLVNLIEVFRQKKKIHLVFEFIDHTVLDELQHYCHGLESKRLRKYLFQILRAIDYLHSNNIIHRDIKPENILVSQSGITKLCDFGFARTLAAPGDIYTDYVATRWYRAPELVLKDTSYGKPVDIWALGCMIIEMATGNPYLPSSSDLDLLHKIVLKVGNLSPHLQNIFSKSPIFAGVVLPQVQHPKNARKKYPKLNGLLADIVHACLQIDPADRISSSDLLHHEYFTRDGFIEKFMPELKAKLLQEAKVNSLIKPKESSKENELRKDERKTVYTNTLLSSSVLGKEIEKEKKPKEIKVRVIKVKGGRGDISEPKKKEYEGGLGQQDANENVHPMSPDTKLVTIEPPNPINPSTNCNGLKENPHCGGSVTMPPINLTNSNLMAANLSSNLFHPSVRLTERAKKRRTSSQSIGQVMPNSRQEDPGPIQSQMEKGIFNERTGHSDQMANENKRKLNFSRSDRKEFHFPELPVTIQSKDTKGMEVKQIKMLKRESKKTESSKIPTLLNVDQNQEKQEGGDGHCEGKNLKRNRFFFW
How it was run: as §1

MERTK = target: T10, MERTK (Homo sapiens, UniProt Q12866)
T10 construct: purchased Ambit (KINOMEscan Max service)
T10 sequence (Q12866 21-999): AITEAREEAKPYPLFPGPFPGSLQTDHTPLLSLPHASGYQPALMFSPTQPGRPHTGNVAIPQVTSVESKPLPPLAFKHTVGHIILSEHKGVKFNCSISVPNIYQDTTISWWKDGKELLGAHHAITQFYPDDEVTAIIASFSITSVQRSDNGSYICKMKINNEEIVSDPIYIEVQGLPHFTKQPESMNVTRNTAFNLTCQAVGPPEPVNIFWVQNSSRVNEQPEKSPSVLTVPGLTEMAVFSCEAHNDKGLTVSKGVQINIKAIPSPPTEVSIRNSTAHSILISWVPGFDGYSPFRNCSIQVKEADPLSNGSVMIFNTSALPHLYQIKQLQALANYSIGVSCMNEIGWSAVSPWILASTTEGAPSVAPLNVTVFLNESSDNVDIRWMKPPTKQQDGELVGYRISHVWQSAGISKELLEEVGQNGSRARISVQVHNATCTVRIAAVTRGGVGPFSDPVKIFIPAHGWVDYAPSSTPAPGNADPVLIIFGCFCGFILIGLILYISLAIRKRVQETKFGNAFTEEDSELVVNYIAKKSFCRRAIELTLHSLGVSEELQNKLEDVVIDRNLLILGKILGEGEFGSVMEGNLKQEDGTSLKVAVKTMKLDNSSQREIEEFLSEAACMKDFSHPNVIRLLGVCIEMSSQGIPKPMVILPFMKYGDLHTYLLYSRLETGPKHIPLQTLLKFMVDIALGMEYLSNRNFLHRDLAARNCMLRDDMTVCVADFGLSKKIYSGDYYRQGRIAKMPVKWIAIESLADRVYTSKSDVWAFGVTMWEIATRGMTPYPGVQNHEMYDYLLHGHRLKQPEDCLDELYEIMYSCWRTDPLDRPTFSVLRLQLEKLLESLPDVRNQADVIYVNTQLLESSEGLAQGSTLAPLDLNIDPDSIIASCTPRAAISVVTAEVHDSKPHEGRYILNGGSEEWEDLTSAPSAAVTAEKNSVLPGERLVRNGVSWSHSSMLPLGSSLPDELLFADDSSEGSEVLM
How it was run: as §1

PAK1 = target: T11, PAK1 (Homo sapiens, UniProt Q13153)
T11 construct: DNA tag (qPCR read-out)
How it was run: as §1

EGFR = target: T12, EGFR (Homo sapiens, UniProt P00533); details: 1 μM
T12 construct: purchased Ambit (KINOMEscan Max panel service)
How it was run: as §1

BRK = target: T13, BRK (Homo sapiens, UniProt Q13882)
T13 construct: DNA tag (qPCR label); purchased Ambit Kinomescan (contract screening)
How it was run: as §1

MAK = MAK (Homo sapiens, UniProt P20794)
How it was run: as §1

TBK1 = TBK1 (Homo sapiens, UniProt Q9UHD2)
Chain of TBK1 (Q9UHD2 whole entry): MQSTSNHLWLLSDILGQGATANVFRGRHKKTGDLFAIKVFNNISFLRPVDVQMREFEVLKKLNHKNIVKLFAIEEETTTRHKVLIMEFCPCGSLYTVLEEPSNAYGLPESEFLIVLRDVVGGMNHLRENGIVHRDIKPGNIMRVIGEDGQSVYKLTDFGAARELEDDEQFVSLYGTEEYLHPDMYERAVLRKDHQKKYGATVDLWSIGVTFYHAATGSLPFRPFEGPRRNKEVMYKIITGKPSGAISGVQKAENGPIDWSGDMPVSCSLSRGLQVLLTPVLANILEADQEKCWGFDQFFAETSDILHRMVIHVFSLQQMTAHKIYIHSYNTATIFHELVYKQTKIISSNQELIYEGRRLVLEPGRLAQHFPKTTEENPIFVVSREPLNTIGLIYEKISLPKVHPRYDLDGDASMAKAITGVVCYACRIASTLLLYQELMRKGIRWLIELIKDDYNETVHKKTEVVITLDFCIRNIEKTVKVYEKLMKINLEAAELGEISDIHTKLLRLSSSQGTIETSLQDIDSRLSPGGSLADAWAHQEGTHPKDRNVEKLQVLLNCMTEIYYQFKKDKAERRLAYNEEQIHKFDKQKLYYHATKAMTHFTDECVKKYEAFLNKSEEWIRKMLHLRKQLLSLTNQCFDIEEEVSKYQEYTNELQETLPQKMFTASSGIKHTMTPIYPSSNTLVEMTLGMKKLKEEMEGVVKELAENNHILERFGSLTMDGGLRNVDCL
How it was run: as §1

NEK2 = NEK2 (Homo sapiens, UniProt P51955)
How it was run: as §1

YANK1 = target: T14, YANK1 (Homo sapiens, UniProt Q8WU08)
T14 construct: purchased Ambit Kinomescan (contract screening service)
How it was run: as §1

FLT3(D835H) = target: T15, FLT3(D835H) (Homo sapiens, UniProt P36888, D835H)
T15 construct: purchased Ambit (KINOMEscan Max service)
How it was run: as §1

[1] = target: ABL1(T315I)-phosphorylated (Homo sapiens, UniProt P00519, T315I)
How it was run: as §1

CDK9 = target: T16, CDK9 (Homo sapiens, UniProt P50750)
T16 construct: DNA tag (qPCR read-out)
T16 sequence (P50750 whole entry): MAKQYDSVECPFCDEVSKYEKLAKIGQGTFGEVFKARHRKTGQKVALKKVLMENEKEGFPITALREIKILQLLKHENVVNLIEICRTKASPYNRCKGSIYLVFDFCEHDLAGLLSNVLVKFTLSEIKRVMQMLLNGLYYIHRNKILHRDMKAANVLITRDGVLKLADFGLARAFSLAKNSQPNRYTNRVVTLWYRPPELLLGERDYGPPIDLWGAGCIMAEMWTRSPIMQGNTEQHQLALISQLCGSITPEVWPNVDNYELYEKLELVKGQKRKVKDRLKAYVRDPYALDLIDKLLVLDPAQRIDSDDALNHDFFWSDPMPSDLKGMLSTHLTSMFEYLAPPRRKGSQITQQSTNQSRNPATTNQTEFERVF
How it was run: as §1

GAK = target: T17, GAK (Homo sapiens, UniProt O14976)
T17 construct: purchased Ambit (KINOMEscan Max service)
How it was run: as §1

CDK7 = target: T18, CDK7 (Homo sapiens, UniProt P50613)
T18 construct: DNA tag (qPCR read-out)
How it was run: as §1

GSK3B = target: T19, GSK3B (Homo sapiens, UniProt P49841)
T19 construct: purchased Ambit Kinomescan (contract panel, KINOMEscan Max)
T19 sequence (P49841 whole entry): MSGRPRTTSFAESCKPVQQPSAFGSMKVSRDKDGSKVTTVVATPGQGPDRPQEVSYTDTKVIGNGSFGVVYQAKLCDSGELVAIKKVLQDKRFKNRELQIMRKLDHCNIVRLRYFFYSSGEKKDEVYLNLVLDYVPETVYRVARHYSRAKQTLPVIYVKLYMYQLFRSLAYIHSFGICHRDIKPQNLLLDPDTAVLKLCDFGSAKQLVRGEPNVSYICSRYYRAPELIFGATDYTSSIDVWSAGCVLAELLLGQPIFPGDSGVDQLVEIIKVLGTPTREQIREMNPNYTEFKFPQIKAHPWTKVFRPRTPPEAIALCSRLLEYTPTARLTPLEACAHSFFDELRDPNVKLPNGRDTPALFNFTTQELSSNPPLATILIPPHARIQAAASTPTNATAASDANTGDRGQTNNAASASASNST
How it was run: as §1

PHKG1 = PHKG1 (Homo sapiens, UniProt Q16816)
How it was run: as §1

DCAMKL2 = target: T20, DCAMKL2 (Homo sapiens, UniProt Q8N568)
T20 construct: purchased Ambit (KINOMEscan Max panel service)
How it was run: as §1

SRPK3 = target: T21, SRPK3 (Homo sapiens, UniProt Q9UPE1)
T21 construct: DNA tag (qPCR read-out)
How it was run: as §1

CSNK1D = target: T22, CSNK1D (Homo sapiens, UniProt P48730)
T22 construct: DNA tag (qPCR read-out); purchased Ambit Kinomescan
T22 sequence (P48730 whole entry): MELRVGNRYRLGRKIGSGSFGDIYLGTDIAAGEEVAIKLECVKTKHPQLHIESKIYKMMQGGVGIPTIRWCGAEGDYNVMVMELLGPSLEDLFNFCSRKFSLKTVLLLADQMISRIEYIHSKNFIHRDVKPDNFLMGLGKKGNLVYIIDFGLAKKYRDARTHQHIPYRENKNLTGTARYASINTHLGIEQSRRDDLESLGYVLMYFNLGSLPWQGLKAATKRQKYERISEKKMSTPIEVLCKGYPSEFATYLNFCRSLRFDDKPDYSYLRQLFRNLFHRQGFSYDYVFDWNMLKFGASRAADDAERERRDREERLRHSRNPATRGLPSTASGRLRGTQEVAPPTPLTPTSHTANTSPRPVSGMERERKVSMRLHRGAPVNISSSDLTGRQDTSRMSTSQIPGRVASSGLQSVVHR
How it was run: as §1

RIPK4 = target: T23, RIPK4 (Homo sapiens, UniProt P57078)
T23 construct: DNA tag (qPCR read-out)
How it was run: as §1

CAMK1G = target: T24, CAMK1G (Homo sapiens, UniProt Q96NX5)
T24 construct: DNA tag (qPCR label); purchased Ambit Kinomescan (contract screening)
How it was run: as §1

MST4 = target: T25, MST4 (Homo sapiens, UniProt Q9P289)
T25 construct: DNA tag (qPCR read-out)
How it was run: as §1

[2] = target: T26, TYK2(JH2domain-pseudokinase) (Homo sapiens, UniProt P29597); details: 1 μM
T26 construct: TYK2(JH2domain-pseudokinase); purchased Ambit Kinomescan (contract screening service)
T26 sequence (P29597 589-875 limits assumed): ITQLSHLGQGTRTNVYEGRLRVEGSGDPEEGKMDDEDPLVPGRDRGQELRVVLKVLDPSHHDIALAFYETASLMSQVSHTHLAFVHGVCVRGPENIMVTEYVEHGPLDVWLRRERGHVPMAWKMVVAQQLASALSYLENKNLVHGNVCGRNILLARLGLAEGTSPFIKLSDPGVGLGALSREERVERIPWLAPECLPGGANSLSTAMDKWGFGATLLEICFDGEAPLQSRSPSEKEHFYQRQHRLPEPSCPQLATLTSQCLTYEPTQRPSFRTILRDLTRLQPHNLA
How it was run: as §1

PDGFRB = PDGFRB (Homo sapiens, UniProt P09619)
How it was run: as §1

NCCCNc1nc2c(Br)c(Br)c(Br)c(Br)c2[nH]1 [Compound 11, N-(3-aminopropyl)-4,5,6,7-tetrabromo-1H-benzo[d]imidazol-2-amine]
remaining binding at 1 µM (FLT3): 100%
% binding (SNARK): 54%
remaining binding at 1 µM (ALK): 100%
remaining binding at 1 µM (NLK): 100%
remaining binding at 1 µM (MRCKB): 100%
remaining binding at 1 µM (GRK7): 100%
remaining binding at 1 µM (PIK3CA(H1047Y)): 100%
remaining binding at 1 µM (BIKE): 60%
remaining binding at 1 µM (MAP3K3): 100%
remaining binding at 1 µM (KIT(L576P)): 83%
remaining binding at 1 µM (CDKL3): 98%
remaining binding at 1 µM (MERTK): 70%
remaining binding at 1 µM (PAK1): 91%
% binding (EGFR): 100%
remaining binding at 1 µM (BRK): 100%
remaining binding at 1 µM (MAK): 79%
remaining binding at 1 µM (TBK1): 76%
remaining binding at 1 µM (NEK2): 99%
remaining binding at 1 µM (YANK1): 100%
remaining binding at 1 µM (FLT3(D835H)): 58%
remaining binding at 1 µM [1]: 100%
remaining binding at 1 µM (CDK9): 90%
remaining binding at 1 µM (GAK): 81%
remaining binding at 1 µM (CDK7): 27%
remaining binding at 1 µM (GSK3B): 100%
remaining binding at 1 µM (PHKG1): 94%
remaining binding at 1 µM (DCAMKL2): 100%
remaining binding at 1 µM (SRPK3): 100%
remaining binding at 1 µM (CSNK1D): 17%
remaining binding at 1 µM (RIPK4): 100%
remaining binding at 1 µM (CAMK1G): 100%
remaining binding at 1 µM (MST4): 87%
% binding [2]: 100%
remaining binding at 1 µM (PDGFRB): 80%
